In one assay the target is T1, human OX2 receptor (Homo sapiens, UniProt O43614).
T1 construct: expressed in transfected cells; host or cells: CHO cells
T1 sequence (O43614 1-444): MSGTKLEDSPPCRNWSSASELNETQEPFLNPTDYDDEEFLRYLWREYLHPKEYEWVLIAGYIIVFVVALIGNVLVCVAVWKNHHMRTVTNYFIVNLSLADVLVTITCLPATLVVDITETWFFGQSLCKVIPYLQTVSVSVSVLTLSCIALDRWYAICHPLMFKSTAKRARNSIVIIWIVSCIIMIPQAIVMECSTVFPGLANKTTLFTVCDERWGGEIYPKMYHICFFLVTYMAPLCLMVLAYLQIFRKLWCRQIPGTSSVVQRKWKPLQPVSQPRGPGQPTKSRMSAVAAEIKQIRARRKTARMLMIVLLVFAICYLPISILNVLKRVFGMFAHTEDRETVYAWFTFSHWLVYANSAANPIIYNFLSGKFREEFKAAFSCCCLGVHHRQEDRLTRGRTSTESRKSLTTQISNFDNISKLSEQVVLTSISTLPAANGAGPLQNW
The assay can be described thus: Measurement of orexin receptor antagonistic activity (calcium fluorescence, FLIPRtetra). Type of assay: cell-based. Particulars: CHO, read-out: Human Orexin2 receptor inhibition (at 10 μM). The method, boiled down:
(§1)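 CHO cells expressing human OX1 or OX2 receptor, cultured one day. Compound in HBSS/20 mM HEPES/0.1% BSA added, then orexin-A at 1 nM final (OX1) or 0.3 nM final (OX2); calcium fluorescence by FLIPRtetra every 1 s for 2 min.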

Another assay addresses T2, human OX1 receptor (Homo sapiens, UniProt O43613).
T2 construct: expressed in transfected cells; host or cells: CHO cells
T2 sequence (O43613 1-425): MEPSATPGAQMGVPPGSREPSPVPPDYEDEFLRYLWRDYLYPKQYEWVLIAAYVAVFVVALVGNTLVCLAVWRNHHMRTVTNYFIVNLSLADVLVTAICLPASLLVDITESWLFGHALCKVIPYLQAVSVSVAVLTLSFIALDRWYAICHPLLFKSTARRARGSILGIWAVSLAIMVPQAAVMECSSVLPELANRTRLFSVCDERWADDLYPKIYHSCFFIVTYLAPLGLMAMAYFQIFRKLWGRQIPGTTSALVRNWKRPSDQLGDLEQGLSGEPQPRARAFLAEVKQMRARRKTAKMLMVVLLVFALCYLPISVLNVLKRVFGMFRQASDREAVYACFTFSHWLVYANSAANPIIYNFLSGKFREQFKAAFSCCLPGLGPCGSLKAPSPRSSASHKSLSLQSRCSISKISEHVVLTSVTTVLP
The description is as above. Type of assay: cell-based. Particulars: CHO, read-out: Human Orexin1 receptor inhibition (at 10 μM). In outline: as §1

The mark [1] stands for this setting: 10 μM test compound, CHO cells expressing human OX2 receptor, OX-A 0.3 nM.
Where [2] appears, read: 10 μM test compound, CHO cells expressing human OX1 receptor, OX-A 1 nM.

Structures are written as SMILES. Read-outs that look alike come from different tables or passages of the source.

In the case of `Cc1ccc(-n2nccn2)c(C(=O)N2CCN(c3nc4cc(Cl)ccc4o3)OC[C@H]2C)c1` [Example 118, ((6R)-2-(5-chloro-1,3-benzoxazol-2-yl)-6-methyl-1,2,5-oxadiazepan-5-yl)(5-methyl-2-(2H-1,2,3-triazol-2-yl)phenyl)methanone], the results for the inhibition at 10 µM on human OX2 receptor (setting [1]) and on human OX1 receptor (setting [2]) were 102% and 101%, respectively.
`Cc1cc(C)nc(N2CCN(C(=O)c3ccc(Cl)cc3Cl)CCO2)n1` [Example 59, (2,4-dichlorophenyl) (2-(4,6-dimethylpyrimidin-2-yl)-1,2,5-oxadiazepan-5-yl)methanone]: the inhibition – broadly, the drop in the measured response relative to a control, in per cent – at 10 µM worked out at 65% on human OX2 receptor and 1% at human OX1 receptor.
`Cc1ccc(-n2nccn2)c(C(=O)N2CCN(c3nc(C)cnc3C)OC[C@H]2C)c1` [Example 129, ((6R)-2-(3,6-dimethylpyrazin-2-yl)-6-methyl-1,2,5-oxadiazepan-5-yl) (5-methyl-2-(2H-1,2,3-triazol-2-yl)phenyl)methanone]: the values for the inhibition at 10 µM on human OX2 receptor (setting [1]) and at human OX1 receptor (setting [2]) were 86% and 38%, respectively.
Regarding `COc1cccc(C(=O)N2CCON(c3nc(C)cc(C)n3)CC2)c1Cl` [Example 60, (2-chloro-3-methoxyphenyl) (2-(4,6-dimethylpyrimidin-2-yl)-1,2,5-oxadiazepan-5-yl)methanone], the values for the inhibition at 10 µM on human OX2 receptor and on human OX1 receptor were 3% and -1%, respectively.
Turning to `Cc1cc(N2CCN(C(=O)c3ccccc3-n3nccn3)C[C@H](C)O2)nc(C(F)(F)F)n1` [Example 94, ((7S)-7-methyl-2-(6-methyl-2-(trifluoromethyl)pyrimidin-4-yl)-1,2,5-oxadiazepan-5-yl) (2-(2H-1,2,3-triazol-2-yl)phenyl)methanone], the results for the inhibition at 10 µM at human OX2 receptor (setting [1]) and on human OX1 receptor (setting [2]) were 104% and 106%, respectively.
Take `Cc1cc(N2C[C@H](C)N(C(=O)c3ccccc3-n3nccn3)[C@H](C)CO2)nc(C)n1` [Example 172, ((4S,6R)-2-(2,6-dimethylpyrimidin-4-yl)-4,6-dimethyl-1,2,5-oxadiazepan-5-yl)(2-(2H-1,2,3-triazol-2-yl)phenyl)methanone]: the inhibition at 10 µM at human OX2 receptor (setting [1]) stood at 100%; at human OX1 receptor (setting [2]) it was 103%.
Take `Cc1ccc(-n2nccn2)c(C(=O)N2CCN(c3cccc(C(F)(F)F)n3)OC[C@H]2C)c1` [Example 128, (5-methyl-2-(2H-1,2,3-triazol-2-yl)phenyl) ((6R)-6-methyl-2-(6-(trifluoromethyl)pyridin-2-yl)-1,2,5-oxadiazepan-5-yl)methanone]: the inhibition at 10 µM on human OX2 receptor (setting [1]) amounted to 96%; on human OX1 receptor (setting [2]), 99%.
On the same counts, the results for `Cc1cc(N2CCN(C(=O)c3ccccc3-c3ncc(F)cn3)CCO2)nc(C)n1` [Example 222, (2-(2,6-dimethylpyrimidin-4-yl)-1,2,5-oxadiazepan-5-yl)(2-(5-fluoropyrimidin-2-yl)phenyl)methanone] are 99% and 32%.
For the compound `Cc1cc(N2CCN(C(=O)c3ccccc3-n3nccn3)[C@H](C)CO2)nc(C)n1` [Example 148, ((6R)-2-(2,6-dimethylpyrimidin-4-yl)-6-methyl-1,2,5-oxadiazepan-5-yl) (2-(2H-1,2,3-triazol-2-yl)phenyl)methanone], the inhibition at 10 µM on human OX2 receptor (setting [1]) was 100%; on human OX1 receptor (setting [2]), 53%.
With `Cc1cc(N2CCN(C(=O)c3ccccc3-c3ncccn3)[C@H](C)CO2)nc(C)n1` [Example 213, ((6R)-2-(2,6-dimethylpyrimidin-4-yl)-6-methyl-1,2,5-oxadiazepan-5-yl)(2-(pyrimidin-2-yl)phenyl)methanone], the results for the inhibition at 10 µM at human OX2 receptor (setting [1]) and at human OX1 receptor (setting [2]) were 102% and 47%, respectively.
In the same order, the values of `Cc1ccc(-n2nccn2)c(C(=O)N2CCN(c3cccc(C)n3)OC[C@H]2C)c1` [Example 124, ((6R)-6-methyl-2-(6-methylpyridin-2-yl)-1,2,5-oxadiazepan-5-yl) (5-methyl-2-(2H-1,2,3-triazol-2-yl)phenyl)methanone] are 101% and 85%.
In the same order, the values of `Cc1cc(C)nc(N2CCN(C(=O)c3ccccc3-c3ccco3)CCO2)n1` [Example 81, (2-(4,6-dimethylpyrimidin-2-yl)-1,2,5-oxadiazepan-5-yl) (2-(2-furyl)phenyl)methanone] are 99% and 85%.
Take `Cc1ccc(-n2nccn2)c(C(=O)N2CCN(c3ccc(F)cc3)OC[C@H]2C)c1` [Example 135, ((6R)-2-(4-fluorophenyl)-6-methyl-1,2,5-oxadiazepan-5-yl) (5-methyl-2-(2H-1,2,3-triazol-2-yl)phenyl)methanone]: the results for the inhibition at 10 µM on human OX2 receptor and at human OX1 receptor were 88% and 15%, respectively.
Turning to `COc1ccccc1C(=O)N1CCON(c2nc(C)cc(C)n2)CC1` [Example 51], the figures for the inhibition at 10 µM on human OX2 receptor (setting [1]) and at human OX1 receptor (setting [2]) were 68% and 22%, respectively.
As for `Cc1cc(C)nc(N2CCN(C(=O)c3cc(Cl)ccc3Cl)CCO2)n1` [Example 54, (2,5-dichlorophenyl) (2-(4,6-dimethylpyrimidin-2-yl)-1,2,5-oxadiazepan-5-yl)methanone], the inhibition at 10 µM on human OX2 receptor (setting [1]) amounted to 84%; at human OX1 receptor (setting [2]), 16%.
In the same order, the values of `Cc1cc(C)nc(N2CCN(C(=O)c3cccc4c3OCC4)CCO2)n1` [Example 74, 2,3-dihydro-1-benzofuran-7-yl (2-(4,6-dimethylpyrimidin-2-yl)-1,2,5-oxadiazepan-5-yl)methanone] are 57% and 10%.
Take `C[C@H]1CN(C(=O)c2ccccc2-n2nccn2)CCN(c2cc(C3CC3)nc(C3CC3)n2)O1` [Example 96, ((7S)-2-(2,6-dicyclopropylpyrimidin-4-yl)-7-methyl-1,2,5-oxadiazepan-5-yl) (2-(2H-1,2,3-triazol-2-yl)phenyl)methanone]: the inhibition at 10 µM at human OX2 receptor (setting [1]) and on human OX1 receptor (setting [2]) was 98% in each case.
Regarding `Cc1ccc(-n2nccn2)c(C(=O)N2CCON(c3cc(C)nc(C)c3)CC2)c1` [Example 35, (2-(2,6-dimethylpyridin-4-yl)-1,2,5-oxadiazepan-5-yl)(5-methyl-2-(2H-1,2,3-triazol-2-yl)phenyl)methanone], the inhibition at 10 µM at human OX2 receptor (setting [1]) was 5%; on human OX1 receptor (setting [2]), -4%.
`Cc1ccc(-n2nccn2)c(C(=O)N2CCN(c3cc(C(F)F)ccn3)OC[C@H]2C)c1` [Example 139, ((6R)-2-(4-(difluoromethyl)pyridin-2-yl)-6-methyl-1,2,5-oxadiazepan-5-yl) (5-methyl-2-(2H-1,2,3-triazol-2-yl)phenyl)methanone]: the inhibition at 10 µM at human OX2 receptor was found to be 98%; on human OX1 receptor it was 54%.
In the case of `Cc1ccc(-n2nccn2)c(C(=O)N2CCN(c3ccnc(C(F)(F)F)c3)OC[C@H]2C)c1` [Example 146, (5-methyl-2-(2H-1,2,3-triazol-2-yl)phenyl) ((6R)-6-methyl-2-(2-(trifluoromethyl)pyridin-4-yl)-1,2,5-oxadiazepan-5-yl)methanone], the inhibition at 10 µM was determined as 88% at human OX2 receptor and 66% on human OX1 receptor.
On the same counts, the results for `Cc1ccc(-n2nccn2)c(C(=O)N2CCN(c3ccnc(C)c3)OC[C@H]2C)c1` [Example 144, ((6R)-6-methyl-2-(2-methylpyridin-4-yl)-1,2,5-oxadiazepan-5-yl) (5-methyl-2-(2H-1,2,3-triazol-2-yl)phenyl)methanone] are 12% and 14%.
As to `Cc1ccc(-n2nccn2)c(C(=O)N2CCON(c3ncc(C4CC4)cn3)CC2)c1` [Example 10, (2-(5-cyclopropylpyrimidin-2-yl)-1,2,5-oxadiazepan-5-yl)(5-methyl-2-(2H-1,2,3-triazol-2-yl)phenyl)methanone], the inhibition at 10 µM at human OX2 receptor (setting [1]) turned out to be 94%; at human OX1 receptor (setting [2]) it was 93%.
In the case of `Cc1ccc(-n2nccn2)c(C(=O)N2CCN(c3cn4ccccc4n3)OC[C@H]2C)c1` [Example 130, ((6R)-2-(imidazo[1,2-a]pyridin-2-yl)-6-methyl-1,2,5-oxadiazepan-5-yl) (5-methyl-2-(2H-1,2,3-triazol-2-yl)phenyl)methanone], the inhibition at 10 µM at human OX2 receptor stood at 56%; on human OX1 receptor, 62%.

For the origin of these results see patent US10131653B2, “Heterocyclic compound” (TAKEDA PHARMACEUTICAL COMPANY LIMITED, priority 2015, dated 2018).
